Data set [1] concerns proteinase secretion. The experiment in a line: Proteinase assay (BSA agar, Pz value). The class given is cell-based, C. albicans D15.9 (FLC-resistant). To be noted: for Decrease of proteinase secretion: at MIC, 1 h exposure. The protocol: (§1) Following incubation, 1.5 mL of the yeast culture was taken into micro centrifuge tubes and centrifuged at 3000 rpm, for 5 min. The pellet obtained was washed by phosphate buffer saline (PBS) twice to remove the residual medium. […] Volumes of 1μL were placed at equidistant points on proteinase agar medium (0.1% yeast nitrogen base w/o amino acids; 0.145% ammonium sulfate; 2% glucose with 0.2% (w/v) BSA fraction V mixed into agar at ∼40°C) and incubated at 37°C for 3 days. The experiment was performed in duplicate. Secreted proteinase enzyme will degrade BSA and form zone of clearance around the yeast colonies. An index (Pz value) was used to represent the extent of proteinase activity by different strains of C. albicans. A Pz value of 1.0 depicts no enzyme activity. It was calculated as follows: Pzvalue=diameterofcolony/diameterofcolony+diameterofzoneofdegradation

In data set [2] the test system is C. albicans D15.9 (FLC-resistant). Description: Growth assay (growth curve). The class given is cell-based. To be noted: sub-MIC (MIC/2). As to the method:
(§2) The C. albicans cells were freshly revived by subculture on the SD agar plate. A loopful of inoculum was introduced into the SD broth and cells were grown for 16 h at 37°C before use. Approximately 2×10^3 cells/mL were then inoculated into the freshly prepared 50 mL sterile SD medium. […] At predetermined time periods (0, 2, 4, 6, 8, 10, 12, 14, 16, 18, 20 22, and 24 after incubation with agitation at 37°C), 1 mL aliquot of each sample was removed from the conical flask and growth was measured tubidometrically at 600 nm using Thermo Multiskan spectrophotometer. Optical density was recorded for each concentration against time (h).

In data set [3] the test system is C. albicans ATCC 90028 (Standard). The experiment in a line: Growth assay (growth curve). The class given is cell-based. To be noted: sub-MIC (MIC/2). As to the method:
as §2

Data set [4] has as its system C. albicans D27 (FLC-susceptible). Description: Growth assay (growth curve). To be noted: sub-MIC (MIC/2). The class given is cell-based. As to the method: as §2
The nature of a further data set: Hemolytic assay. The class given is cell-based. To be noted: human, human red blood cells (erythrocyte suspension), 37°C, read-out: Hemolysis of hRBCs. As to the method: Human blood from a healthy individual was collected in tubes containing EDTA as anti-coagulant. The erythrocytes were harvested by centrifugation for 10 min at 2000 rpm and 20°C, washed three times in PBS. To the pellet, PBS was added to yield a 10% (v/v) erythrocytes/PBS suspension. The 10% suspension was then diluted 1:10 in PBS. From each suspension, 100 μL was added in triplicate to 100 μL of a different dilution series of test compounds in the same buffer in micro centrifuge tubes. […] The tubes were incubated for 1 h at 37°C and then centrifuged for 10 min at 2000 rpm and 20°C. From the supernatant, 150 μL was transferred to a flat-bottomed microtiter plate (Tarson), and the absorbance was measured spectrophotometrically at 450 nm. The hemolysis percentage was calculated by following equation: %Hemolysis=[(A450oftestcompoundtreatedsample−A450ofbuffertreatedsample)÷(A450of1%TritonX−100treatedsample−A450ofbuffertreatedsample)]×100

Data set [5] relates to proteinase secretion. The experiment in a line: Proteinase assay (BSA agar, Pz value). To be noted: at MIC, 1 h exposure. The class given is cell-based, C. albicans D27 (FLC-susceptible). As to the method: as §1
The subject of the next data set is ergosterol biosynthesis. Description: Ergosterol estimation assay.

The melting point is the temperature of the solid-liquid transition. Regarding `Clc1ccc(OCc2cn(Cc3ccccc3)nn2)c2ncccc12` [Compound 3b, 8-((1-Benzyl-1H-1,2,3-triazol-4-yl)methoxy)-5-chloroquinoline], the melting point was in the range of 148 to 149 °C. In the data set on proteinase secretion [1], the “Decrease of proteinase secretion” value stood at 23.5%. For the same compound, the “Time after which growth was observed” value in data set [2] amounted to 14 h. In data set [3], the “Time after which growth was observed” value is 20 h. Also, in data set [4], the “Time after which growth was observed” value amounted to 18 h. Further, the hemolysis at 1 h, 500 μg/mL in the data set “Hemolytic assay” worked out at 26.8%. Also, the “Decrease of proteinase secretion” value in the data set with proteinase secretion [5] was 22%. Further, the “Mean decrease in total ergosterol content” value (shortened to “Mean decrease”) with ergosterol biosynthesis (above MIC/2, 16 h) is recorded as 100%. For the same compound, the “Mean decrease” value in the data set with ergosterol biosynthesis (at MIC/4, 16 h) is given as 33%.

Take `c1ccc(Cn2cc(COc3cccc4cccnc34)nn2)cc1` [Compound 3a]: in the data set with proteinase secretion [1] (Fig 4 legend), the “Decrease of proteinase secretion (fold)” value was “two fold”. For the same compound, the figures for the “Decrease of proteinase secretion” value in the data set with proteinase secretion [1] and in the data set on proteinase secretion [5] were 45% and 30%, respectively. The hemolysis at 1 h, 500 μg/mL in “Hemolytic assay” turned out to be 4.76%. Also, the “Mean decrease” value was 100% with ergosterol biosynthesis (above MIC/2, 16 h) and 48% in the data set on ergosterol biosynthesis (at MIC/4, 16 h).

Values taken from publication PMC5400251, “Effect of quinoline based 1,2,3-triazole and its structural analogues on growth and virulence attributes of Candida albicans” (PLoS ONE, 2017).
